Test results: US20080004561A1, “Method for Treating Oncological, Virulent and Somatic Diseases, Method for Controlling Treatment Efficiency, Pharmaceutical Agents and Composition for Carrying Out Said Treatment” (priority 2005, published 2008)

What was measured:
[1] = test system: Staphylococcus aureus VT-209; assay: Influence of DNase on bacterial biofilm formation on glass (Example 4); type: cell-based
Experimental: (§1) For estimation of possible mechanisms of DNase action on bacteria' interactions with host's organism we have estimated its influence on biofilm formation.
(§2) Experiments were performed on biofilm models, received at laboratory cultivation on the surface of glass. Non-relative Gram-positive (Staphylococcus aureus VT-209) and Gram-negative (Escherichia coli ATCC25922) bacteria were used.
(§3) Bacteria were sowed at 10^9 bacteria/ml concentrations and were incubated at 37° C. during 72 hours on synthetic M9 media that contains additives necessary for used bacteria strains. DNase was added in amount of 100 mkg/ml right after bacteria' inoculation. Identical volume of phosphate buffer was added to control. Selective vials were taken for analysis every 24 hours.
(§4) Glasses were washed by PBS buffer, fixed, stained with methylene blue and studied with the use of light microscopy.

[2] = test system: Escherichia coli ATCC25922; assay: as above; type: cell-based
Experimental: as §1, §2, §3, §4

Erlich carcinoma [3] = assay: Inhibition of Erlich tumor growth by different schemes of DNase administration (Example 2); type: in vivo, mice; details: day 3 to 7, 7 day after transplantation
Experimental: (§5) Bovine pancreatic DNase I (Fermentas) and human recombinant DNase I (Dornase; Gentech) were used. DNase I solution for injections were prepared by dissolving of DNase matrix solution in sterile phosphate buffer directly before administration. Cyclophosphamide and Doxorubicin were dissolved according to instruction.
(§6) Blood plasma DNA of tumor-bearing mice was received according to technique described above. Highly metastatic and low metastatic stains of mice' Luice lung carcinoma and Erlich carcinoma were used. Cells were cultivated in RPMI-1640 media with adding of 10% embryonic calf serum, 1% penicillin—streptomycin in 5% carbon dioxide atmosphere. For tumor induction in mice, cells were cultivated until the monolayer, than were detached with trypsin-EDTA solution. Cells were washed trice by centrifuging in phosphate buffer and were resuspensed until their concentration have become 0.5×10^7/ml. Viability was defined by inclusion of methylene blue in hemocytometer. Suspensions that contained 95% of viable cells were used for administration to animals.
(§7) Mice of C57B1 line and white not thoroughbred mice from “Rappolovo” animal house were used. Weight of animals was 24-26 grams. Animals were contained in cages, for 6-7 mice per one cage on a standard diet without water restriction. LLC cells in dose of 5×10^5 in 100 mkl of phosphate buffer were injected in soft tissues of thigh. Erlich tumor was subcutaneously replanted on the right side by injection of 0.2 ml 10% cells' suspension in isotonic sodium chloride solution.
In our experiments DNA circulating in blood plasma of patients was the therapeutic target of DNase. Prolonged presence of DNase in blood plasma at catalytically effective concentrations is essential for provision of maximal therapeutic effect.
(§8) Group 1—10 mice transplanted with Erlich carcinoma (control).
(§9) Group 2—10 mice transplanted with Erlich carcinoma. Mice were intraperitoneally injected with DNase at 1 mg/kg dose in […] of phosphate buffer twice a day starting from 3 up to 7 day after tumor transplantation.
Group 3—10 mice transplanted with Erlich carcinoma. Mice were intraperitoneally injected with DNase at 0.5 mg/kg dose in […] of phosphate buffer four times a day starting from 3 up to 7 day after tumor transplantation.

Erlich carcinoma [4] = assay: Influence of DNase administrated twice a day on Erlich tumor growth at mice (Example 1); type: in vivo; details: day 3 to 7, 7 day after transplantation
Experimental: as §5, §6, §7
Influence of DNase I Administrated Twice a Day on Erlich Tumor Growth at Mice
as §8, §9
Group 3—10 mice transplanted with Erlich carcinoma. Mice were intraperitoneally injected with DNase at 2 mg/kg dose in […] of phosphate buffer twice a day starting from 3 up to 7 day after tumor transplantation.

metastases development = details: systemic introduction; Sugihara S. et al. (1990, 1993); cited from earlier work
[5] = test system: DNA from fresh blood serum; assay: Sensitivity of circulating blood DNA to DNase action, electrophoresis (Example 9); type: biochemical, volunteers; details: DNA processed by DNase I for 3 hours at 37° C.
Experimental: DNA from fresh blood serum (mixture of blood received from 5 volunteers ) was isolated by standard phenol-chloroform method.
Sediment of nucleic acids was washed by 70% ethanol and dissolved in tris-EDTA buffer. Spectrophotometry with wave's length 260 nm (SF-46) was used for quantification of DNA. DNA was researched by electrophoresis in 0.8% […] gel with ethidium bromide staining. One part of received DNA was processed by DNase I for 3 hours at 37° C. After electrophoretic separation of processed and not processed DNA it was found out that: […]

[6] = DNase 100 mkg/ml added right after inoculation, 37° C., 72 hours, M9 media, light microscopy
[7] = DNase 100 mkg/ml, control sowings from vials
[8] = DNase 0.5 mg/kg intraperitoneally four times a day
[9] = DNase 1 mg/kg intraperitoneally twice a day
[10] = DNase 2 mg/kg intraperitoneally twice a day

Substance: DNase
- Biofilm formation [1, 6]: normal biofilm was not formed
- Colony-forming units (CFU) in comparison with controls [1, 7]: no death of cells
- Biofilm formation [2, 6]: normal biofilm was not formed
- Colony-forming units (CFU) in comparison with controls [2, 7]: no death of cells
- T% (tumor's growth inhibition) (Erlich carcinoma [3]; [8]): 76%
- Tumor's volume (Erlich carcinoma [3]; [8]): 23 +/− 6
- T% (tumor's growth inhibition) (Erlich carcinoma [3]; [9]): 67%
- Tumor's volume (Erlich carcinoma [3]; [9]): 32 +/− 6
- TGI % (Erlich carcinoma [4]; [9]): 61%
- Tumor's volume (Erlich carcinoma [4]; [9]): 33 +/− 6
- TGI % (Erlich carcinoma [4]; [10]): 60%
- Tumor's volume (Erlich carcinoma [4]; [10]): 34 +/− 7
- Metastases development (metastases development): could slow metastases development
- DNA band after electrophoresis [5]: disappeared completely
